Read-outs that look alike come from different tables or passages of the source.
What was measured:
[1] = in vivo; cited from earlier work
[2] = test system: patients with advanced renal cell carcinoma
Source text: Transcript levels were quantitated by the Personalis ACE Cancer Transciptome Analysis pipeline which uses STAR version 2.4.2a-p1 to align reads to the NCBI hs37d5 annotation 105 reference genome and produces Transcripts Per Million (TPM) values for each gene. TPM values were log2 transformed for further analysis.
Weighted Gene Co-Expression Network Analysis (WGCNA) was used to find co-expressed modules in the 720 baseline transcriptomic samples. […] The soft power of 6 was chosen based on goodness of fit to a scale-free network. A signed WGCNA network was constructed in R^37 with mergeCutHeight set to 0.25 and reassignThreshold set to 0. After removing non-coding genes and modules with size <10, 25 modules were identified. Gene signature scores were computed from the average expression of genes in a module. Univariate Cox Proportional Hazards (Cox PH) model was used to assess the dependence of PFS on each gene signature, which was categorized into high vs low groups according to median signature score. Multivariate analysis was also carried out adjusting for age and sex. Modules were annotated through identifying top enriched gene sets via hypergeometric tests using public gene set collections including the MSigDB Hallmark, GO Biological Process and LM22.
To assess the robustness of identified gene modules, next was carried out a consensus WGCNA analysis. […] The soft power of 6 was chosen based on goodness of fit to a scale-free network. 720 baseline data were randomly subsampled down to 80% of samples for 1,000 times. With each subsampled dataset, we constructed a co-expression network using the WGCNA procedure as described above. An adjacency matrix was constructed by counting the frequencies two genes were clustered into the same network module. A consensus network was then constructed using the new adjacency matrix via the standard WGCNA approach. Edges were then filtered by adjacency measure of 0.8. Modules with size <10 were removed. Consensus WGCNA identified 23 modules. Hypergeometric tests were then carried out to annotate modules as described above.
To refine the 306-gene immune response module, we selected genes annotated for immune-related functionality and had univariate Cox PH p-value <0.01 in the combination arm.

[3] = test system: patients with advanced renal cell carcinoma; experiment: CD8 immunohistochemistry study: PFS by number of CD8+ cells at the invasive margin in the phase 3 study; assay type: in vivo, human
Protocol: CD8 expression was assessed by immunohistochemistry using clone C8/144B and reported in terms of the number of CD8+ cells in relation to the total number of […] or at the invasive margin, with the median value as the cut point.

[4] = test system: patients with advanced RCC (aRCC); experiment: Phase 3 clinical trial of avelumab in combination with axitinib versus sunitinib (NCT02684006); assay type: in vivo, human
Protocol: Patients will be stratified according to ECOG performance status (0 versus 1) and LDH (>1.5 ULN vs. ≤1.5 ULN). In arm A (avelumab in combination with axitinib), avelumab will be given as a 1 hour intravenous infusion (IV) every 2 weeks in a 6-week cycle. Axitinib will be given orally (PO) twice daily (BID), with or without food, on a continuous dosing schedule.
Axitinib treatment may be adjusted by dosing interruption with or without dose reduction. Intrapatient axitinib dose escalation may occur if the intrapatient escalation criteria are met.
Study Treatment: Axitinib will be given orally twice daily PO on a continuous daily dosing schedule. Avelumab will be given as a 1 hour intravenous infusion every 2 weeks in a 6-week cycle.
Tumor Assessments: Anti-tumor activity will be assessed by radiological tumor assessments and will be based on RECIST guidelines version 1.1 for primary and secondary endpoints and on immune-related RECIST (irRECIST) guidelines for exploratory endpoints. Tumor assessments will be performed every 6 weeks (Q6W) up to 1 year from first dose therapy; thereafter, tumor assessments will be performed every 2 cycles. […]

[5] = test system: patients with advanced renal cell carcinoma; remark: listed apart in the source
Protocol: Tumor samples were collected from patients in Example 2 and were subject to whole exome sequencing to identify genetic mutations. Software tools BWA and a combination of MuTect, Vardict, Picard, and other vendor tools were used.
The Cox proportional hazards (PH) regression model was used to assess the dependence of progression-free survival (PFS) on mutational status of each gene. In addition, multivariate analysis was also carried out adjusting for age, sex and tumor mutation burden. […] Genes were filtered based on the following criteria: • A. Mutated at 5% or more in the B9991003 cohort • B. Interaction term P-value<0.05 in both model (1) and model (2), testing for treatment specific differences of the mutations on survival outcome. • C.

[6] = patients with CDL163L1 mutation
[7] = patients with CDL163L1 wild type
[8] = patients with LOC728763 mutation
[9] = patients with LOC728763 wild type
[10] = patients with SPATA31C2 mutation
[11] = patients with SPATA31C2 wild type

## avelumab: an anti-PD-L1 IgG1 monoclonal antibody
[1]
  half-life: 72 to 120 h

## CCN(CC)CCNC(=O)c1c(C)[nH]c(/C=C2\C(=O)Nc3ccc(F)cc32)c1C [sunitinib]
[2]; greater than median expression of JAVELIN Renal 101 Immuno Signature
  median PFS: 8.3 months
[2]; less than median expression of JAVELIN Renal 101 Immuno Signature
  median PFS: 9.0 months
[2]; within treatment arm
  HR for PFS by tumor mutational burden (TMB): 0.79
  HR for PFS, high expression of IMmotion 150 angiogenesis signature: 0.64
  HR for PFS, high vs low JAVELIN Renal 101 Angiogenesis Signature: 0.56
  HR for PFS, high vs low JAVELIN Renal 101 Immuno Signature: 0.98
[3]; high numbers of CD8+ cells at the invasive margin
  median PFS: 7.1 months
[3]; low numbers of CD8+ cells
  median PFS: 11.1 months
[3]; within treatment arm
  HR for PFS, high vs low numbers of CD8+ cells at the invasive margin: 1.42
[4]; PD-L1-positive tumors, median follow-up for overall survival 11.6 and 10.7 months
  patients had died: 44 patients
[4]; patients with PD-L1-positive tumors
  objective response rate: 25.5%
[5]; patients with ABCA1 mutation
  Rate of PFS at 15 months: 25%
[5]; patients with ABCA1 wild type
  Rate of PFS at 15 months: 25%
  Rate of PFS at 20 months: 25%
[5]; patients with ARVCF mutation
  Rate of PFS at 15 months: 43%
  Rate of PFS at 20 months: 39%
[5]; patients with ARVCF wild type
  Rate of PFS at 15 months: 22%
  Rate of PFS at 20 months: 22%
[5]; [6]
  Rate of PFS at 15 months: 15%
  Rate of PFS at 20 months: 15%
[5]; [7]
  Rate of PFS at 15 months: 25%
  Rate of PFS at 20 months: 25%
[5]; patients with DNMT1 mutation
  Rate of PFS at 15 months: 0%
  Rate of PFS at 20 months: 0%
[5]; patients with DNMT1 wild type
  Rate of PFS at 15 months: 25%
  Rate of PFS at 20 months: 25%
[5]; patients with FOXO1 mutation
  Rate of PFS at 15 months: 10%
  Rate of PFS at 20 months: 10%
[5]; patients with FOXO1 wild type
  Rate of PFS at 15 months: 25%
  Rate of PFS at 20 months: 25%
[5]; patients with IL16 mutation
  Rate of PFS at 15 months: 25%
  Rate of PFS at 20 months: 25%
[5]; patients with IL16 wild type
  Rate of PFS at 15 months: 23%
  Rate of PFS at 20 months: 23%
[5]; [8]
  Rate of PFS at 15 months: 25%
  Rate of PFS at 20 months: 25%
[5]; [9]
  Rate of PFS at 15 months: 23%
  Rate of PFS at 20 months: 23%
[5]; patients with MCR1 mutation
  Rate of PFS at 15 months: 30%
[5]; patients with MCR1 wild type
  Rate of PFS at 15 months: 30%
  Rate of PFS at 20 months: 30%
[5]; patients with MYH7B mutation
  Rate of PFS at 15 months: 10%
[5]; patients with MYH7B wild type
  Rate of PFS at 15 months: 25%
  Rate of PFS at 20 months: 25%
[5]; patients with PTEN mutation
  Rate of PFS at 15 months: 20%
[5]; patients with PTEN wild type
  Rate of PFS at 15 months: 25%
  Rate of PFS at 20 months: 25%
[5]; [10]
  Rate of PFS at 15 months: 25%
  Rate of PFS at 20 months: 25%
[5]; [11]
  Rate of PFS at 15 months: 23%
  Rate of PFS at 20 months: 23%
[5]; patients with STAB2 mutation
  Rate of PFS at 15 months: 30%
  Rate of PFS at 20 months: 30%
[5]; patients with STAB2 wild type
  Rate of PFS at 15 months: 25%
  Rate of PFS at 20 months: 25%
